Assay results published in PMC3477139 (PLoS ONE, 2012).

Key:
[1] = target: T1, human GLP-1R (Homo sapiens, UniProt P43220); experiment: ERK activation (phospho-ERK Western blot) in HEK-GLP-1R cells; type: cell-based; settings: compound 2 10 µM, 5 min
T1 construct: expressed in transfected cells; vector pcDNA5/FRT
Protocol: (§1) Concentration-response curves were fitted using GraphPad Prism (GraphPad Software Inc., CA) using a standard four parameter logistic equation. All data are representative of n≥3 or are presented as mean+/±s.e.m., where n = 3 unless otherwise stated. Statistical analysis was by oneway ANOVA and where P<0.05, followed by Bonferroni's or Dunnett's multiple range test as indicated. Alternatively analysis was performed by Student's t-test. Where potency estimates are given these are pEC50 values (−log10 of the molar concentration giving 50% of the maximal response).

[2] = test system: GLP-1R; settings: unclear whether additivity or true potentiation; ref [33]; cited from earlier work
[3] = target: T1, human GLP-1R; experiment: cAMP generation in intact HEK-GLP-1R cells; type: cell-based
Protocol: (§2) HEK-Flp-In cells with stable recombinant expression of the human GLP-1R (HEK-GLP-1R) were cultured in DMEM with high glucose supplemented with 10% FBS, 100 µg/ml streptomycin and 100 units/ml penicillin sulphate. These cells were originally generated by transfection of HEK-Flp-In cells (Invitrogen: Paisley, U.K.) with pcDNA5/FRT containing the human GLP-1R. […] INS-1E cells were kindly provided by Prof. C.B. Wollheim of the University of Geneva, Switzerland [19]. These cells were used between passages 65–90 and cultured in RPMI media containing 11.1 mM glucose, 5% heat-inactivated FBS, 100 µg/ml streptomycin, 100 units/ml penicillin sulphate, 100 units/ml neomycin, 50 µM β-mercaptoethanol, 10 mM HEPES and 1 mM sodium pyruvate. All cells were cultured at 37°C in a 5% CO2 humidified atmosphere and passaged at confluence.
(§3) Confluent monolayers of HEK-GLP-1R cells cultured in 24-well plates pre-coated with poly-D-lysine (0.1% w/v) where washed twice with 0.5 ml Krebs-HEPES buffer (KHB, composition: 10 mM HEPES; 4.2 mM NaHCO3; 11.7 mM D-glucose; 1.18 mM MgSO4·7H2O; 1.18 mM KH2PO4; 4.69 mM KCl; 118 mM NaCl; 1.3 mM CaCl2·2H2O; pH 7.4) containing 0.1% (w/v) BSA (KHB-BSA) before incubation (10 min, 37°C) in 360 µl KHB-BSA containing 500 µM isobutylmethylxanthine (IBMX). Ligands or vehicle control (40 µl) were added and reactions terminated after the appropriate times by replacement of the aqueous phase with ice-cold 0.5 M trichloroacetic acid. INS-1E cells grown to confluence in 24-well plates were treated similarly with the exception that after washing in KHB, cells were incubated in 200 µl KHB-BSA containing 1.4 mM glucose without IBMX for 2 h followed by challenge with ligands (or vehicle) for 15 min at 37°C in 400 µl KHB-BSA, in the presence of 10 mM glucose and 500 µM IBMX. Reactions were terminated as above.
(§4) The cAMP was extracted from either intact cell or membrane preparations using a method identical to that for extraction of Ins(1,4,5)P3 [22]. Levels of cAMP were then determined by a competitive radioreceptor assay using binding protein purified from bovine adrenal glands and related to cellular protein assessed by Bradford assay.
as §1

[4] = target: T2, GLP-1R (native, rat insulinoma cell line INS-1E) (Rattus norvegicus, UniProt P32301); experiment: ERK activation (phospho-ERK Western blot) in INS-1E cells; type: cell-based; settings: single ligands, 5 min; much lower concentrations of GLP-1 7–36 amide required
T2 construct: the rat insulinoma cell line, INS-1E, with native expression of the GLP-1R; endogenous in cells; host or cells: INS-1E rat insulinoma cells (gift of Prof. C.B. Wollheim)
T2 sequence (P32301 22-463): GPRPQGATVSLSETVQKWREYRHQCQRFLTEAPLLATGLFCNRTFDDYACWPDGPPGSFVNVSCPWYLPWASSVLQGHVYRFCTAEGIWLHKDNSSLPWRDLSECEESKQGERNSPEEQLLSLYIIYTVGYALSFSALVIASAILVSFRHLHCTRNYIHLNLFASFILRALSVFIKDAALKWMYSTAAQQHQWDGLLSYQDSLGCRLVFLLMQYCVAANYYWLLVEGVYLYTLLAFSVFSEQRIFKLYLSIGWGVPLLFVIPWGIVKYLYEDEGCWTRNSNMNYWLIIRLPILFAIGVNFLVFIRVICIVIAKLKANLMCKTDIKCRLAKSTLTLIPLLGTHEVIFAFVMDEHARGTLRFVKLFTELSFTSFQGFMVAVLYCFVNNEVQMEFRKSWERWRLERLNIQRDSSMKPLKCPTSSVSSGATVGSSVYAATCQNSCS
Protocol: as §2, §1

[5] = target: T1, human GLP-1R; experiment: cAMP generation by membranes from HEK-GLP-1R cells; type: biochemical; settings: 5 min, 30°C, IBMX
Protocol: as §4, §1

[6] = target: T2, GLP-1R (native, rat insulinoma cell line INS-1E); experiment: cAMP generation in INS-1E cells; type: cell-based
Protocol: as §2, §3, §4, §1

[7] = test system: GLP-1R; settings: cited from earlier work
From the text: Such proteolysis is thought to remove biological activity.

T1 sequence (P43220 24-463): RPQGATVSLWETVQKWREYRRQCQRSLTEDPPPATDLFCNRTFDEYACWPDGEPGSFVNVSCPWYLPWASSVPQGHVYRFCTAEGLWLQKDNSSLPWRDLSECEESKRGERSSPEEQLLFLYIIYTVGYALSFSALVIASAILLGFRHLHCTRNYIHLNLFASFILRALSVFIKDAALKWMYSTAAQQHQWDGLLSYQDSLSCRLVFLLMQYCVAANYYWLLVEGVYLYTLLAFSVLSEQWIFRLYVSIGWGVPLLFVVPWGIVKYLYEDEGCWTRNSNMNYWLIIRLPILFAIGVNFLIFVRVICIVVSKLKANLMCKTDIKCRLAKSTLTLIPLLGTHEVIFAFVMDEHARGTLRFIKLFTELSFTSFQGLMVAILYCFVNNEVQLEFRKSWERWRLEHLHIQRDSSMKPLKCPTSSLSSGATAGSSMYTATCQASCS

time of peak cAMP response ([3]; 1 µM compound 2, IBMX): 30 min
maximal response (Emax), cAMP ([3]; no pretreatment (buffer 10 min), 15 min challenge, IBMX, pH 7.4, 37°C, mean±s.e.m., n = 3): 1908±91 pmol/mg protein
pEC50, cAMP ([3]; no pretreatment (buffer 10 min), 15 min challenge, IBMX, compound 2: rising phase of bell-shaped curve, mean±s.e.m., n = 3): 5.94±0.04
Emax as % of the GLP-1 7–36 amide response, cAMP ([3]; no pretreatment, 15 min challenge, IBMX): 72%
pEC50, cAMP, after preincubation with GLP-1 9–36 amide ([3]; preincubated 10 min with 1 µM GLP-1 9–36 amide, 15 min challenge, IBMX, compound 2: rising phase, mean±s.e.m., n = 3): 6.55±0.07
cAMP level (membranes) ([5]; compound 2 alone, 3 µM, mean±s.e.m., n = 3): 2623±269 pmol/mg protein
cAMP elevation (INS-1E) ([6]; 3 µM compound 2 alone, 15 min): 40±8 pmol/mg protein
cAMP response in INS-1E (in words) ([6]; 15 min, 10 mM glucose, IBMX): elevated cAMP with low-potency
Emax as % of that evoked by GLP-1 7–36 amide, cAMP (INS-1E) ([6]; compound 2 alone, concentrations greater than 10 µM not tested): 34%
SMILES: CC(C)(C)Nc1nc2cc(Cl)c(Cl)cc2nc1S(C)(=O)=O [compound 2, 6,7-dichloro-2-methylsulfonyl-3-N-tert-butylaminoquinoxaline]
ERK activation [1]: response equivalent to the maximally effective concentration of GLP-1 7–36 amide (10 nM)
effect on activity of GLP-1 9–36 amide [2]: may increase the activity of GLP-1 9–36 amide
cAMP response over time (in words) ([3]; 1 µM, over 60 min, IBMX, 5% DMSO, n = 3): evoked a more robust increase, which peaked at 30 min and then declined
cAMP response (in words) ([3]; concentration-response, 15 min, IBMX): at >3 µM caused progressively lower cAMP responses, resulting in a bell-shaped concentration-response curve
ERK activation (INS-1E) [4]: robust and approximately equivalent activation of ERK
cAMP response in membranes (in words) [5]: enhanced the ability of GLP-1 9–36 amide to increase cAMP
effect at the GLP-1R (in words) ([7]; ago-allosteric modulator, ref [15]): not only enhancing affinity of the GLP-1R for GLP-1 but providing effective direct agonism
effect on affinity for GLP-1 and on its potency or intrinsic activity ([7]; ref [7], [15]): modestly increases the affinity for GLP-1 it has little impact on potency or intrinsic activity
interaction of compound 2 and GLP-1 7–36 amide on ERK activation ([7]; ref [16]): lack of interaction between compound 2 and GLP-1 7–36 amide on ERK activation
